Patent US20070026465A1, “Method for detecting GAD65 autoreactive T cells newly diagnosed type1 diabetic patients and in the prediabetic period” (priority 2005, published 2007)

Test system: PBMC of newly diagnosed T1D patients
Test: GAD65 HLA class I tetramer staining and flow cytometry of stimulated PBMC, T1D patients
Format: cell-based, human

VMNILLQYV [GAD65 peptide]
% of CD3+/CD8+/GAD65 reactive T cells (specificity of the response): 6.39%
